Patent publication US20170327598A1, “SINGLE DOMAIN ANTIBODIES DIRECTED AGAINST INTRACELLULAR ANTIGENS” (SINGH MOLECULAR MEDICINE, LLC, priority 2014, published 2017)
Where “and” joins values, the source holds several entries; their conditions need not be identical. Equal values may be shown once.

What was measured:
human STAT3 = experiment: Biacore 3000 protein binding, STAT3 ligand immobilized (Example 22); settings: sdAb as analyte
PANC-1 cells [1] = experiment: Internalization of sdAb, anti-His tag staining, PANC-1; assay type: cell-based; settings: 18 hours
Procedure: An anti-HIV-1 Reverse Transcriptase (RT) sdAb was used as a negative control.
The slides were incubated for 18 hours after sdAb addition. The chambers were briefly rinsed with media and fixed in ice-cold methanol for 5-10 min. The chambers were then dried and stained with a fluorescent anti-His tag antibody (1:200)(Novus Biologicals, Littleton, Colo.) for 45 min at room temperature. The slides were rinsed in PBS for 5 minutes and mounted.

PANC-1 cells [2] = experiment: PANC-1 growth inhibition with or without Gemcitabine; settings: SBT-100 100 μg/ml alone, 72 hours (Table 44)
[3] = test system: VEGF-A production in ARPE-19 cells; experiment: VEGF-A ELISA in ARPE-19 retinal cells, Experiment 2;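 as to all read-outs here: confluent ARPE-19 cells in 96-well plates, VEGF-A in culture supernatant quantified by ELISA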; assay type: cell-based, human; settings: for pg VEGF-A per mL: based on collecting 0.1 ml of supernatant; for Mean (pg VEGF-A per mL): mean of Adj. Result, Wells 1-3; for Mean (pg VEGF-A per μg protein): mean of Wells 1-3; for Mean (pg VEGF-A per μg protein) / % Control: Experiment 2; for % Control: normalized for protein; for Mean Result (pg VEGF-A per mL) / pg VEGF-A per μg protein / Adj. Result (pg VEGF-A per mL): per well; for Adj. Result (pg VEGF-A per mL): adjusted for dilution; for Result (pg VEGF-A per mL): single reads

With “Anti-STAT3 VHH13: anti-STAT3 single domain antibody, SEQ ID NO:3; bacterially produced form referred to as SBT-100” the “binding to STAT3 ligand” value (human STAT3) was “bound”, the “internalization, anti-His tag staining” value (PANC-1 cells [1]) was “positive cytoplasmic staining” and the Absorbance (PANC-1 cells [2]) was 0.333. The “% Negative Control” value ([3]; 0.1 μg/well, 12 Hr) was 123.8%, the “pg VEGF-A per mL” value ([3]; 0.1 μg/well, 12 Hr) was 18.6 pg VEGF-A per mL and 14.3 pg VEGF-A per mL and 15 pg VEGF-A per mL and the “Mean (pg VEGF-A per mL)” value ([3]; 0.1 μg/well, 12 Hr) was 159.7 pg VEGF-A per mL. For the same substance, the “Mean (pg VEGF-A per μg protein)” value ([3]; 0.1 μg/well, 12 Hr) was 2.540 pg VEGF-A per μg protein, the “% Control” value ([3]; 0.1 μg/well, 12 Hr) was 134.4% and the “Mean Result (pg VEGF-A per mL)” value ([3]; 0.1 μg/well, 12 Hr) was 37.2 pg VEGF-A per mL and 28.54 pg VEGF-A per mL and 30.06 pg VEGF-A per mL. The “pg VEGF-A per μg protein” value ([3]; 0.1 μg/well, 12 Hr) was 3 pg VEGF-A per μg protein and 2.1 pg VEGF-A per μg protein and 2.4 pg VEGF-A per μg protein, the “Adj. Result (pg VEGF-A per mL)” value ([3]; 0.1 μg/well, 12 Hr) was 186.02 pg VEGF-A per mL and 142.71 pg VEGF-A per mL and 150.31 pg VEGF-A per mL and the “Result (pg VEGF-A per mL)” value ([3]; 0.1 μg/well, 12 Hr) was 30.38 pg VEGF-A per mL and 36.84 pg VEGF-A per mL and 37.57 pg VEGF-A per mL and 29.44 pg VEGF-A per mL and 27.64 pg VEGF-A per mL and 29.74 pg VEGF-A per mL. The “% Negative Control” value ([3]; 0.1 μg/well, 24 Hr) was 93.6%, the “pg VEGF-A per mL” value ([3]; 0.1 μg/well, 24 Hr) was 27.9 pg VEGF-A per mL and 28 pg VEGF-A per mL and 30.4 pg VEGF-A per mL and the “Mean (pg VEGF-A per mL)” value ([3]; 0.1 μg/well, 24 Hr) was 287.4 pg VEGF-A per mL. The “Mean (pg VEGF-A per μg protein)” value ([3]; 0.1 μg/well, 24 Hr) was 4.152 pg VEGF-A per μg protein, the “% Control” value ([3]; 0.1 μg/well, 24 Hr) was 94.1% and the “Mean Result (pg VEGF-A per mL)” value ([3]; 0.1 μg/well, 24 Hr) was 55.73 pg VEGF-A per mL and 56.02 pg VEGF-A per mL and 60.72 pg VEGF-A per mL. The “pg VEGF-A per μg protein” value ([3]; 0.1 μg/well, 24 Hr) was 3.8 pg VEGF-A per μg protein and 4.0 pg VEGF-A per μg protein and 4.7 pg VEGF-A per μg protein, the “Adj. Result (pg VEGF-A per mL)” value ([3]; 0.1 μg/well, 24 Hr) was 278.66 pg VEGF-A per mL and 280.09 pg VEGF-A per mL and 303.58 pg VEGF-A per mL and the “Result (pg VEGF-A per mL)” value ([3]; 0.1 μg/well, 24 Hr) was 58.86 pg VEGF-A per mL and 52.60 pg VEGF-A per mL and 59.52 pg VEGF-A per mL and 52.51 pg VEGF-A per mL and 64.54 pg VEGF-A per mL and 56.89 pg VEGF-A per mL. The “% Negative Control” value ([3]; 0.1 μg/well, 48 Hr) was 100%, the “pg VEGF-A per mL” value ([3]; 0.1 μg/well, 48 Hr) was 94.7 pg VEGF-A per mL and 85.1 pg VEGF-A per mL and 110 pg VEGF-A per mL and the “Mean (pg VEGF-A per mL)” value ([3]; 0.1 μg/well, 48 Hr) was 966 pg VEGF-A per mL. For the same substance, the “Mean (pg VEGF-A per μg protein)” value ([3]; 0.1 μg/well, 48 Hr) was 14.067 pg VEGF-A per μg protein, the “% Control” value ([3]; 0.1 μg/well, 48 Hr) was 107.4% and the “Mean Result (pg VEGF-A per mL)” value ([3]; 0.1 μg/well, 48 Hr) was 189.30 pg VEGF-A per mL and 170.27 pg VEGF-A per mL and 220.04 pg VEGF-A per mL. The “pg VEGF-A per μg protein” value ([3]; 0.1 μg/well, 48 Hr) was 14.1 pg VEGF-A per μg protein and 13.1 pg VEGF-A per μg protein and 15.1 pg VEGF-A per μg protein, the “Adj. Result (pg VEGF-A per mL)” value ([3]; 0.1 μg/well, 48 Hr) was 946.50 pg VEGF-A per mL and 851.33 pg VEGF-A per mL and 1100.22 pg VEGF-A per mL and the “Result (pg VEGF-A per mL)” value ([3]; 0.1 μg/well, 48 Hr) was 195.75 pg VEGF-A per mL and 182.85 pg VEGF-A per mL and 173.80 pg VEGF-A per mL and 166.73 pg VEGF-A per mL and 220.87 pg VEGF-A per mL and 219.22 pg VEGF-A per mL. For the same substance, the “% Negative Control” value ([3]; 1 μg/well, 12 Hr) was 110.5%, the “pg VEGF-A per mL” value ([3]; 1 μg/well, 12 Hr) was 12.9 pg VEGF-A per mL and 13.7 pg VEGF-A per mL and 16.1 pg VEGF-A per mL and the “Mean (pg VEGF-A per mL)” value ([3]; 1 μg/well, 12 Hr) was 142.5 pg VEGF-A per mL. The “Mean (pg VEGF-A per μg protein)” value ([3]; 1 μg/well, 12 Hr) was 2.273 pg VEGF-A per μg protein, the “% Control” value ([3]; 1 μg/well, 12 Hr) was 120.3% and the “Mean Result (pg VEGF-A per mL)” value ([3]; 1 μg/well, 12 Hr) was 25.82 pg VEGF-A per mL and 27.43 pg VEGF-A per mL and 32.23 pg VEGF-A per mL. The “pg VEGF-A per μg protein” value ([3]; 1 μg/well, 12 Hr) was 2 pg VEGF-A per μg protein and 2.2 pg VEGF-A per μg protein and 2.7 pg VEGF-A per μg protein, the “Adj. Result (pg VEGF-A per mL)” value ([3]; 1 μg/well, 12 Hr) was 129.12 pg VEGF-A per mL and 137.14 pg VEGF-A per mL and 161.16 pg VEGF-A per mL and the “Result (pg VEGF-A per mL)” value ([3]; 1 μg/well, 12 Hr) was 26.74 pg VEGF-A per mL and 24.91 pg VEGF-A per mL and 26.62 pg VEGF-A per mL and 28.24 pg VEGF-A per mL and 33.18 pg VEGF-A per mL and 31.29 pg VEGF-A per mL. The “% Negative Control” value ([3]; 1 μg/well, 24 Hr) was 106.8%, the “pg VEGF-A per mL” value ([3]; 1 μg/well, 24 Hr) was 37.3 pg VEGF-A per mL and 31.2 pg VEGF-A per mL and 29.9 pg VEGF-A per mL and the “Mean (pg VEGF-A per mL)” value ([3]; 1 μg/well, 24 Hr) was 327.9 pg VEGF-A per mL. The “Mean (pg VEGF-A per μg protein)” value ([3]; 1 μg/well, 24 Hr) was 4.084 pg VEGF-A per μg protein, the “Mean Result (pg VEGF-A per mL)” value ([3]; 1 μg/well, 24 Hr) was 74.61 pg VEGF-A per mL and 62.42 pg VEGF-A per mL and 59.71 pg VEGF-A per mL and the “Adj. Result (pg VEGF-A per mL)” value ([3]; 1 μg/well, 24 Hr) was 373.06 pg VEGF-A per mL and 312.11 pg VEGF-A per mL and 298.74 pg VEGF-A per mL. The “Result (pg VEGF-A per mL)” value ([3]; 1 μg/well, 24 Hr) was 78.44 pg VEGF-A per mL and 70.78 pg VEGF-A per mL and 68.61 pg VEGF-A per mL and 56.23 pg VEGF-A per mL and 63.71 pg VEGF-A per mL and 55.71 pg VEGF-A per mL, the “pg VEGF-A per mL” value ([3]; 1 μg/well, 48 Hr) was 87.6 pg VEGF-A per mL and 101.9 pg VEGF-A per mL and 111.9 pg VEGF-A per mL and the “Mean (pg VEGF-A per mL)” value ([3]; 1 μg/well, 48 Hr) was 1004.7 pg VEGF-A per mL. For the same substance, the “Mean (pg VEGF-A per μg protein)” value ([3]; 1 μg/well, 48 Hr) was 13.796 pg VEGF-A per μg protein, the “% Control” value ([3]; 1 μg/well, 48 Hr) was 105.4% and the “Mean Result (pg VEGF-A per mL)” value ([3]; 1 μg/well, 48 Hr) was 175.22 pg VEGF-A per mL and 203.89 pg VEGF-A per mL and 223.71 pg VEGF-A per mL. For the same substance, the “pg VEGF-A per μg protein” value ([3]; 1 μg/well, 48 Hr) was 12.4 pg VEGF-A per μg protein and 13.6 pg VEGF-A per μg protein and 15.3 pg VEGF-A per μg protein, the “Adj. Result (pg VEGF-A per mL)” value ([3]; 1 μg/well, 48 Hr) was 876.08 pg VEGF-A per mL and 1019.44 pg VEGF-A per mL and 1118.55 pg VEGF-A per mL and the “Result (pg VEGF-A per mL)” value ([3]; 1 μg/well, 48 Hr) was 168.84 pg VEGF-A per mL and 181.59 pg VEGF-A per mL and 195.75 pg VEGF-A per mL and 212.03 pg VEGF-A per mL and 225.75 pg VEGF-A per mL and 221.67 pg VEGF-A per mL. For the same substance, the “% Negative Control” value ([3]; 10 μg/well, 12 Hr) was 107.8%, the “pg VEGF-A per mL” value ([3]; 10 μg/well, 12 Hr) was 15.2 pg VEGF-A per mL and 12.2 pg VEGF-A per mL and 14.3 pg VEGF-A per mL and the “Mean (pg VEGF-A per mL)” value ([3]; 10 μg/well, 12 Hr) was 139.00 pg VEGF-A per mL. For the same substance, the “Mean (pg VEGF-A per μg protein)” value ([3]; 10 μg/well, 12 Hr) was 2.148 pg VEGF-A per μg protein, the “% Control” value ([3]; 10 μg/well, 12 Hr) was 113.7% and the “Mean Result (pg VEGF-A per mL)” value ([3]; 10 μg/well, 12 Hr) was 30.43 pg VEGF-A per mL and 24.41 pg VEGF-A per mL and 28.58 pg VEGF-A per mL. For the same substance, the “pg VEGF-A per μg protein” value ([3]; 10 μg/well, 12 Hr) was 2.5 pg VEGF-A per μg protein and 1.9 pg VEGF-A per μg protein and 2 pg VEGF-A per μg protein and the “Adj. Result (pg VEGF-A per mL)” value ([3]; 10 μg/well, 12 Hr) was 152.14 pg VEGF-A per mL and 122.07 pg VEGF-A per mL and 142.92 pg VEGF-A per mL.
